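Step 1: Grow cells in 96-well plates. Step 2: Expose to compound for 48 hours at 5 concentrations. Step 3: Interpolate endpoints linearly; if unreached, use highest concentration. At the GI50, growth is halved. TGI is the concentration that stops growth completely.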
Experiments:
Assay in all cases: NCI-60 cell line screen, 48 h
[1] = tested on: RXF 393 renal
[2] = tested on: SW-620 colon
[3] = tested on: DU-145 prostate
[4] = tested on: HCT-15 colon
[5] = tested on: PC-3 prostate
[6] = tested on: RPMI-8226 leukemia
[7] = tested on: A498 renal
[8] = tested on: SF-268 CNS
[9] = tested on: NCI/ADR-RES ovarian
[10] = tested on: UACC-62 melanoma
[11] = tested on: HS 578T breast
[12] = tested on: HOP-62 NSCLC
[13] = tested on: CAKI-1 renal
[14] = tested on: KM12 colon
[15] = tested on: MDA-MB-435
[16] = tested on: OVCAR-5 ovarian
[17] = tested on: SK-MEL-28 melanoma
[18] = tested on: UO-31 renal
[19] = tested on: ACHN renal
[20] = tested on: SF-295 CNS
[21] = tested on: SK-MEL-2 melanoma
[22] = tested on: NCI-H226 lung
[23] = tested on: HCC-2998 colon
[24] = tested on: MOLT-4 leukemia
[25] = tested on: TK-10 renal
[26] = tested on: OVCAR-3 ovarian
[27] = tested on: SK-MEL-5 melanoma
[28] = tested on: SNB-19 CNS
[29] = tested on: HT29 colon
[30] = tested on: U251 CNS
[31] = tested on: SK-OV-3 ovarian
[32] = tested on: HCT-116 colon
[33] = tested on: CCRF-CEM leukemia
[34] = tested on: LOX IMVI melanoma
[35] = tested on: COLO 205 colon
[36] = tested on: SR leukemia
[37] = tested on: NCI-H460 lung
[38] = tested on: K-562 leukemia
[39] = tested on: SF-539 CNS
[40] = tested on: M14 melanoma
[41] = tested on: HL-60(TB) leukemia
[42] = tested on: MCF7 breast
[43] = tested on: NCI-H522 lung
[44] = tested on: OVCAR-4 ovarian
[45] = tested on: BT-549 breast
[46] = tested on: MALME-3M melanoma
[47] = tested on: MDA-MB-231 breast
[48] = tested on: IGROV1 ovarian
[49] = tested on: UACC-257 melanoma
[50] = tested on: NCI-H23 lung
[51] = tested on: SN12C renal
[52] = tested on: OVCAR-8 ovarian
[53] = tested on: A549 NSCLC
[54] = tested on: EKVX NSCLC
[55] = tested on: MDA-MB-468 breast
[56] = tested on: T-47D breast
[57] = tested on: 786-0 renal

Work on COc1ccc(C(=O)/C=C/c2cccnc2)cc1S(N)(=O)=O yielded a GI50 [1] of 12.3 µM, a TGI [1] of 24.7 µM and a GI50 [2] of 6.38 µM. For the same molecule, the TGI [2] was 29.5 µM, the GI50 [3] was 11.2 µM and the TGI [3] was 22.6 µM. It also gave a GI50 [4] of 4.18 µM, a TGI [4] of 16.7 µM and a GI50 [5] of 16.5 µM. The TGI [5] was 33.2 µM, the GI50 [6] was 9.08 µM and the TGI [6] was 28.2 µM. For the same molecule, the GI50 [7] was 21.7 µM, the TGI [7] was 53.6 µM and the GI50 [8] was 13.6 µM. It also gave a TGI [8] of 31.6 µM, a GI50 [9] of 23.4 µM and a TGI [9] of 90.2 µM. The GI50 [10] was 12.8 µM, the TGI [10] was 24.7 µM and the GI50 [11] was 21.1 µM. The TGI [11] was 65.6 µM, the GI50 [12] was 15.6 µM and the TGI [12] was 33 µM. The GI50 [13] was 12.7 µM, the TGI [13] was 24.9 µM and the GI50 [14] was 3.8 µM. It also gave a TGI [14] of 14.4 µM, a GI50 [15] of 14.4 µM and a TGI [15] of 31.1 µM. For the same molecule, the GI50 [16] was 11.9 µM, the TGI [16] was 23.5 µM and the GI50 [17] was 14.9 µM. The TGI [17] was 27.5 µM, the GI50 [18] was 6.05 µM and the TGI [18] was 18.5 µM. For the same molecule, the GI50 [19] was 13.5 µM, the TGI [19] was 25.5 µM and the GI50 [20] was 12.8 µM. It also gave a TGI [20] of 25.2 µM, a GI50 [21] of 19.4 µM and a TGI [21] of 49.7 µM. The GI50 [22] was 14.4 µM, the TGI [22] was 32.3 µM and the GI50 [23] was 13.9 µM. The TGI [23] was 26.1 µM, the GI50 [24] was 3.5 µM and the TGI [24] was 15.1 µM. The GI50 [25] was 13.9 µM, the TGI [25] was 26.6 µM and the GI50 [26] was 10.3 µM. For the same molecule, the TGI [26] was 21.6 µM, the GI50 [27] was 14.8 µM and the TGI [27] was 27.3 µM. The GI50 [28] was 13.4 µM, the TGI [28] was 25.4 µM and the GI50 [29] was 5.49 µM. For the same molecule, the TGI [29] was 21.2 µM, the GI50 [30] was 7.44 µM and the TGI [30] was 26.7 µM. For the same molecule, the GI50 [31] was 16.7 µM, the TGI [31] was 31.1 µM and the GI50 [32] was 3.18 µM. The TGI [32] was 11.7 µM, the GI50 [33] was 12.6 µM and the TGI [33] was 33.2 µM. It also gave a GI50 [34] of 4.63 µM, a TGI [34] of 16.1 µM and a GI50 [35] of 13.7 µM. It also gave a TGI [35] of 29.8 µM, a GI50 [36] of 1.83 µM and a TGI [36] of 6.68 µM. The GI50 [37] was 9.17 µM, the TGI [37] was 44.9 µM and the GI50 [38] was 2.92 µM. It also gave a TGI [38] of 20.5 µM, a GI50 [39] of 4.32 µM and a TGI [39] of 15.7 µM. The GI50 [40] was 14.3 µM, the TGI [40] was 29 µM and the GI50 [41] was 11 µM. It also gave a TGI [41] of 32.7 µM, a GI50 [42] of 4.87 µM and a TGI [42] of 18.5 µM. For the same molecule, the GI50 [43] was 10.5 µM, the TGI [43] was 24.1 µM and the GI50 [44] was 16.3 µM. It also gave a TGI [44] of 36 µM, a GI50 [45] of 12.9 µM and a TGI [45] of 25.4 µM. The GI50 [46] was 14.2 µM, the TGI [46] was 27.1 µM and the GI50 [47] was 13.4 µM. It also gave a TGI [47] of 25.5 µM, a GI50 [48] of 12.4 µM and a TGI [48] of 24.7 µM. For the same molecule, the GI50 [49] was 15.7 µM, the TGI [49] was 32.2 µM and the GI50 [50] was 12 µM. It also gave a TGI [50] of 24.1 µM, a GI50 [51] of 7.37 µM and a TGI [51] of 18.8 µM. The GI50 [52] was 15.1 µM, the TGI [52] was 35.6 µM and the GI50 [53] was 13.8 µM. It also gave a TGI [53] of 33.9 µM, a GI50 [54] of 11.9 µM and a TGI [54] of 24.2 µM. For the same molecule, the GI50 [55] was 7.1 µM, the TGI [55] was 20.1 µM and the GI50 [56] was 8.86 µM. For the same molecule, the TGI [56] was 25.6 µM, the GI50 [57] was 11.2 µM and the TGI [57] was 24.1 µM.
